# Numbers after ± are expanded uncertainties.
# Details: Liquid
SMILES,vapor or sublimation pressure (313.15 K) [kPa],vapor or sublimation pressure (323.15 K) [kPa],vapor or sublimation pressure (333.15 K) [kPa],vapor or sublimation pressure (343.15 K) [kPa],vapor or sublimation pressure (353.15 K) [kPa],vapor or sublimation pressure (363.15 K) [kPa]
"CC(F)(F)F [1,1,1-trifluoroethane]",1831 ± 14,2302 ± 18,2874 ± 22,3553 ± 28,,
CCCC [butane],377 ± 3,495 ± 4,639 ± 5,810 ± 6,1012 ± 8,1250 ± 10

# Source: the NIST ThermoML archive (doi:10.1021/je060336+)
